Laboratory results reported in ChEMBL document CHEMBL5712891, “Inhibition of BET bromodomain-dependent XIAP and FLIP expression sensitizes KRAS-mutated NSCLC to pro-apoptotic agents” (Cell Death Dis, 2016).
Active and inactive are the calls of the source. The rule behind the calls is not given here.

Assays:
NCI-H460 [1] = experiment: Induction of apoptosis in human NCI-H460 cells assessed as late apoptotic cells at 0.5 uM for 24 hrs by annexin V-PI staining based flow cytometric analysis (reference value: 3.7%); type: functional
DV-90 [2] = experiment: Induction of cell cycle arrest in human DV-90 cells assessed as accumulation of cells at S phase at 0.1 uM for 24 hrs by Click-iT EdU Alexa Fluor 647 flow cytometric assay kit analysis (reference value: 31%); type: functional
NCI-H1373 [3] = experiment: Induction of apoptosis in human NCI-H1373 cells assessed as late apoptotic cells at 2.5 uM for 24 hrs by annexin V-PI staining based flow cytometric analysis (reference value: 22.3%); type: functional
NCI-H460 [4] = experiment: Induction of cell cycle arrest in human NCI-H460 cells assessed as accumulation of cells at G2/M phase at 1 uM for 24 hrs by Click-iT EdU Alexa Fluor 647 flow cytometric assay kit analysis (reference value: 1%); type: functional
DV-90 [5] = experiment: Induction of cell cycle arrest in human DV-90 cells assessed as accumulation of cells at S phase at 1 uM for 24 hrs by Click-iT EdU Alexa Fluor 647 flow cytometric assay kit analysis (reference value: 31%); type: functional
NCI-H1373 [6] = experiment: Induction of apoptosis in human NCI-H1373 cells assessed as late apoptotic cells at 0.5 uM for 24 hrs by annexin V-PI staining based flow cytometric analysis (reference value: 22.3%); type: functional
DV-90 [7] = experiment: Induction of cell cycle arrest in human DV-90 cells assessed as accumulation of cells at S phase at 0.25 uM for 24 hrs by Click-iT EdU Alexa Fluor 647 flow cytometric assay kit analysis (reference value: 31%); type: functional
DV-90 [8] = experiment: Induction of cell cycle arrest in human DV-90 cells assessed as accumulation of cells at S phase at 0.5 uM for 24 hrs by Click-iT EdU Alexa Fluor 647 flow cytometric assay kit analysis (reference value: 31%); type: functional
NCI-H460 [9] = experiment: Induction of cell cycle arrest in human NCI-H460 cells assessed as accumulation of cells at G2/M phase at 0.5 uM for 24 hrs by Click-iT EdU Alexa Fluor 647 flow cytometric assay kit analysis (reference value: 1%); type: functional
NCI-H460 [10] = experiment: Induction of cell cycle arrest in human NCI-H460 cells assessed as accumulation of cells at G2/M phase at 0.25 uM for 24 hrs by Click-iT EdU Alexa Fluor 647 flow cytometric assay kit analysis (reference value: 1%); type: functional
NCI-H460 [11] = experiment: Induction of cell cycle arrest in human NCI-H460 cells assessed as accumulation of cells at G2/M phase at 0.1 uM for 24 hrs by Click-iT EdU Alexa Fluor 647 flow cytometric assay kit analysis (reference value: 1%); type: functional
NCI-H460 [12] = experiment: Induction of cell cycle arrest in human NCI-H460 cells assessed as accumulation of cells at G0/G1 phase at 0.25 uM for 24 hrs by Click-iT EdU Alexa Fluor 647 flow cytometric assay kit analysis (reference value: 43%); type: functional
NCI-H460 [13] = experiment: Induction of cell cycle arrest in human NCI-H460 cells assessed as accumulation of cells at S phase at 0.25 uM for 24 hrs by Click-iT EdU Alexa Fluor 647 flow cytometric assay kit analysis (reference value: 56%); type: functional
NCI-H460 [14] = experiment: Induction of cell cycle arrest in human NCI-H460 cells assessed as accumulation of cells at S phase at 0.1 uM for 24 hrs by Click-iT EdU Alexa Fluor 647 flow cytometric assay kit analysis (reference value: 56%); type: functional
NCI-H460 [15] = experiment: Induction of cell cycle arrest in human NCI-H460 cells assessed as accumulation of cells at G0/G1 phase at 0.1 uM for 24 hrs by Click-iT EdU Alexa Fluor 647 flow cytometric assay kit analysis (reference value: 43%); type: functional
NCI-H460 [16] = experiment: Induction of cell cycle arrest in human NCI-H460 cells assessed as accumulation of cells at G0/G1 phase at 0.5 uM for 24 hrs by Click-iT EdU Alexa Fluor 647 flow cytometric assay kit analysis (reference value: 43%); type: functional
NCI-H460 [17] = experiment: Induction of cell cycle arrest in human NCI-H460 cells assessed as accumulation of cells at S phase at 1 uM for 24 hrs by Click-iT EdU Alexa Fluor 647 flow cytometric assay kit analysis (reference value: 56%); type: functional
NCI-H460 [18] = experiment: Induction of cell cycle arrest in human NCI-H460 cells assessed as accumulation of cells at G0/G1 phase at 0.5 uM for 24 hrs by Click-iT EdU Alexa Fluor 647 flow cytometric assay kit analysis (reference value: 45%); type: functional
NCI-H460 [19] = experiment: Induction of cell cycle arrest in human NCI-H460 cells assessed as accumulation of cells at S phase at 0.5 uM for 24 hrs by Click-iT EdU Alexa Fluor 647 flow cytometric assay kit analysis (reference value: 56%); type: functional
DV-90 [20] = experiment: Induction of cell cycle arrest in human DV-90 cells assessed as accumulation of cells at G2/M phase at 0.1 uM for 24 hrs by Click-iT EdU Alexa Fluor 647 flow cytometric assay kit analysis (reference value: 25%); type: functional
NCI-H460 [21] = experiment: Induction of cell cycle arrest in human NCI-H460 cells assessed as accumulation of cells at G0/G1 phase at 1 uM for 24 hrs by Click-iT EdU Alexa Fluor 647 flow cytometric assay kit analysis (reference value: 43%); type: functional
NCI-H460 [22] = experiment: Induction of apoptosis in human NCI-H460 cells assessed as necrotic cells at 2.5 uM for 24 hrs by annexin V-PI staining based flow cytometric analysis (reference value: 2.7%); type: functional
A549 [23] = experiment: Induction of apoptosis in human A549 cells assessed as viable cells at 1 uM in presence of cisplatin by annexin V-PI based flow cytometric analysis (reference value: 95.7%); type: functional; conditions: read-out: Activity
NCI-H1373 [24] = experiment: Induction of cell cycle arrest in human NCI-H1373 cells assessed as accumulation of cells at G2/M phase at 0.1 uM for 24 hrs by Click-iT EdU Alexa Fluor 647 flow cytometric assay kit analysis (reference value: 13%); type: functional
NCI-H358 = experiment: Downregulation of FLIP mRNA expression level in human NCI-H358 cells at 0.1 to 1 uM for 24 hrs by qRT-PCR analysis; type: functional, cell-based; conditions: dose 0.1-1 µM
A549 [25] = experiment: Induction of cell cycle arrest in human A549 cells assessed as accumulation of cells at G0/G1 phase at 1 uM for 24 hrs by Click-iT EdU Alexa Fluor 647 flow cytometric assay kit analysis (reference value: 61%); type: functional
DV-90 [26] = experiment: Induction of apoptosis in human DV-90 cells assessed as necrotic cells at 2.5 uM for 24 hrs by annexin V-PI staining based flow cytometric analysis (reference value: 5.4%); type: functional
A549 [27] = experiment: Downregulation of XIAP protein expression level in human A549 cells at 1 uM for 24 hrs by […] analysis; type: functional, cell-based
NCI-H460 [28] = experiment: Induction of apoptosis in human NCI-H460 cells assessed as early apoptotic cells at 2.5 uM for 24 hrs by annexin V-PI staining based flow cytometric analysis (reference value: 0.2%); type: functional
A549 [29] = experiment: Antitumor activity against human A549 cells assessed as test to control tumor ratio administered at 80 mg/kg, ip for 7 days along with cisplatin for 5 days follwed by compound treatment for 14 days relative to control; type: functional; conditions: time 7 day

SMILES	Activity (DV-90 [2]) [%]	Activity (NCI-H460 [4]) [%]	Activity (DV-90 [5]) [%]	Activity (DV-90 [7]) [%]	Activity (DV-90 [8]) [%]	Activity (NCI-H460 [9]) [%]	Activity (NCI-H460 [10]) [%]	Activity (NCI-H460 [11]) [%]	Activity (NCI-H460 [12]) [%]	Activity (NCI-H460 [13]) [%]	Activity (NCI-H460 [14]) [%]	Activity (NCI-H460 [15]) [%]	Activity (NCI-H460 [16]) [%]	Activity (NCI-H460 [17]) [%]	Activity (NCI-H460 [19]) [%]	Activity (NCI-H460 [21]) [%]	also measured
Cc1sc2c(c1C)C(c1ccc(Cl)cc1)=N[C@@H](CC(=O)Nc1ccc(O)cc1)c1nnc(C)n1-2 [BIRABRESIB]	20	1	17	21	17	3	1	1	–	–	–	–	–	–	–	–	Activity (NCI-H460 [1]): 4.6%; Activity (NCI-H1373 [3]): 20.3%; Activity (NCI-H1373 [6]): 20.5%
CCNC(=O)C[C@@H]1N=C(c2ccc(Cl)cc2)c2cc(OC)ccc2-n2c(C)nnc21 [MOLIBRESIB]	–	1	–	–	–	1	1	1	45	54	53	46	49	47	49	51	Activity (NCI-H460 [18]): 51%; Activity (DV-90 [20]): 31%
Cc1sc2c(c1C)C(c1ccc(Cl)cc1)=N[C@@H](CC(=O)OC(C)(C)C)c1nnc(C)n1-2	27	1	15	24	18	1	1	1	41	57	55	44	45	54	54	45	Activity (NCI-H460 [22]): 3.7%; viability at 1 µM (A549 [23]): 58.9%; Activity (NCI-H1373 [24]): 17%; Activity (NCI-H358): Active; Activity (A549 [25]): 64%; Activity (DV-90 [26]): 31%; Activity (A549 [27]): Active; Activity (NCI-H460 [28]): 0.4%; T/C (A549 [29]): 41%
